Assays:
[1] = biological target: T1, E. coli PBP3 (Escherichia coli, UniProt P0AD68); experiment: Bocillin FL competition binding assay, PBP3; set-up: species or system Escherichia coli K12; details: 15 min pre-incubation
T1 construct: 100 μg's of total membrane protein extracts containing PBPs; endogenous in cells; host or cells: Escherichia coli K12, membrane protein fraction
Method in brief: (§1)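 E. coli K12 membrane extracts (100 µg protein) pre-incubated 15 min with compound (0.005–2,480 µg/mL) in pH 7 phosphate/350 mM NaCl, then labelled with Bocillin FL 30 min at 35°C; SDS-PAGE fluorescence (ex 450/em 520 nm), μg/mL reported. PBP1a/1b unresolved, reported combined.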

[2] = biological target: T2, E. coli K12 PBP1b (Escherichia coli, UniProt P02919); experiment: Competition binding assay using Bodipy-FL boronic acid probe (Example 125); details: Bodipy-FL boronic acid probe (Example 125) 30 μM, 10 minutes pre-incubation, 10 minutes reaction
T2 construct: endogenous in cells; host or cells: Escherichia coli K12, membrane protein fraction
T2 sequence (P02919 whole entry): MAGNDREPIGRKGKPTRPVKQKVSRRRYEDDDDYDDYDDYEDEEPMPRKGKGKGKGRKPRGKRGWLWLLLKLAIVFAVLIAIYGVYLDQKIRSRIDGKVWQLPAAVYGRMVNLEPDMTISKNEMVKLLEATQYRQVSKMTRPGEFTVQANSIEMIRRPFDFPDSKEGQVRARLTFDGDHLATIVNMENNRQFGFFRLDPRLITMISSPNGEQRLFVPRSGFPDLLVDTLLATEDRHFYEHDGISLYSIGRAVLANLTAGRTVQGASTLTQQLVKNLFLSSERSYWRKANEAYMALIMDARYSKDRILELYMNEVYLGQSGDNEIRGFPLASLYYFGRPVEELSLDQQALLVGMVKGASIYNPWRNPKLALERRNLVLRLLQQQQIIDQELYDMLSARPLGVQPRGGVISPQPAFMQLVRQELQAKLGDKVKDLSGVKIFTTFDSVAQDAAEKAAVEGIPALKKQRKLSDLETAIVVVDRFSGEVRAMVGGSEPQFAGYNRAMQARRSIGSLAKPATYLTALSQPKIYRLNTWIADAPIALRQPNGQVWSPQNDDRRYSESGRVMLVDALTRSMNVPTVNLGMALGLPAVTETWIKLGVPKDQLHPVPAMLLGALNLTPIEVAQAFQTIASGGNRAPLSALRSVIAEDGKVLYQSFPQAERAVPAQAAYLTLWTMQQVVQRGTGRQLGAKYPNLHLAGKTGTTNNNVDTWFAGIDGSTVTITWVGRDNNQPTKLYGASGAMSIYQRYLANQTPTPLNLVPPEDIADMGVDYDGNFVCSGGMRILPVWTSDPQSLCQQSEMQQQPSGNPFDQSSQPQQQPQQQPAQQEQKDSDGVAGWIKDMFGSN
Experimental: Penicillin binding proteins were isolated from Escherichia coli K12 by growth of Escherichia coli K12 from a single colony in 4 L of Luria-Bertani (LB) broth at 35° C. and 250 rpm to an OD600 nm of 0.5. The cells were harvested by centrifugation at 7,000×g for 10 min. at 4° C. Cells were resuspended and washed in 50 mM potassium phosphate pH 7.5. The cells were re-suspended in sonication buffer [50 mM Tris-HCl pH 7.5, 1 mM MgCl2, 1 mM beta-mercaptoethanol, and 5 μg/mL DNAse I] and sonicated by 4 passes of 30 seconds at 45 W on ice. The sample was clarified by centrifugation at 3,000×g to remove cell debris and unbroken cells and supernatant containing the membrane proteins was retained. The membrane proteins including the PBPs were further purified from soluble constituents by an ultracentrifugation step at 100,000×g for 30 min. at 4° C. The membrane proteins are washed twice with 10 mM sodium phosphate pH 7, resuspended in a volume of 5 mL, quantitated by BCA assay, adjusted to […] and frozen at −80° C. until use.
The adapted Bocillin FL competition binding method described herein incorporates a 15 min. pre-incubation of test compound with isolated PBPs to attempt to balance the difference in mechanism of inhibition between beta-lactams (largely irreversible covalent bond to active site Serine) and the boron-containing PBP inhibitor test compounds (reversible covalent bond to active site Serine). Briefly, 50 μL reactions consisted of 100 μg's of total membrane protein extracts containing PBPs incubated with a dilution series of test compound ranging from 0.005 μg/mL to 2,480 μg/mL in 10 mM sodium phosphate pH7 containing 350 mM NaCl. Thirty minute reactions at 35° C. were initiated by addition of […] Bocillin FL, quenched by addition of SDS-PAGE loading buffer containing sodium dodecyl sulfate (SDS) and heated for 15 minutes at 95° C. to denature proteins in preparation for SDS-polyacrylamide gel electrophoresis. The Bocillin FL labeled PBPs are then separated by SDS-PAGE in Novex NuPage 10% Bis-Tris pre-cast gels (Invitrogen). The SDS-PAGE gel, post-electrophoresis, is then washed in water to remove excess SDS for 10 minutes at room temperature and placed on the scanning bed of a GE Healthcare/Amersham Biosciences Storm 860 fluorescence scanner. The excitation wavelength is in the blue spectrum at 450 nm and the emission at 520 nm is captured by the instrument. Effective PBP inhibitors are detected by a reduction in Bocillin FL labeling of the particular PBP over the dose range of test compound in a dose-responsive manner. High molecular weight PBP 1a/1b are not resolved by these gels, thus we report HMW PBP binding results in μg/mL for PBPs 1a/1b combined as well as for PBP2 and PBP3.
To determine the ability of boronic acid-based test PBP inhibitors to bind Penicillin Binding Proteins (PBPs), a competition binding assay using a Bodipy-FL-labeled boronic acid PBP inhibitor (Example 125) was adapted from the classical method used to assess PBP potency of beta-lactams using Bocillin-FL (fluorescently-labeled penicillin V). The method is identical to that described in Example I for the Bocillin-FL competition binding assay with the following exceptions, the Bodipy-FL boronic acid probe (Example 125) is used at a final concentration of 30 μM, pre-incubation time of test compound with PBP enzymes is 10 minutes and reaction time is set for 10 minutes and reactions are prepared for SDS-PAGE analysis by simply adding SDS-containing loading buffer. Representative results are shown in Table 5, where A represents a potency of >1000 μg/mL, B represents a potency between 64 and 1000 μg/mL inclusive, and C represents a potency of <64 μg/mL. NT=Not Tested.

[3] = biological target: T3, E. coli PBP2 (Escherichia coli, UniProt P0AD65); experiment: Bocillin FL competition binding assay, PBP2; set-up: species or system Escherichia coli K12; details: 15 min pre-incubation
T3 construct: 100 μg's of total membrane protein extracts containing PBPs; endogenous in cells; host or cells: Escherichia coli K12, membrane protein fraction
T3 sequence (P0AD65 whole entry): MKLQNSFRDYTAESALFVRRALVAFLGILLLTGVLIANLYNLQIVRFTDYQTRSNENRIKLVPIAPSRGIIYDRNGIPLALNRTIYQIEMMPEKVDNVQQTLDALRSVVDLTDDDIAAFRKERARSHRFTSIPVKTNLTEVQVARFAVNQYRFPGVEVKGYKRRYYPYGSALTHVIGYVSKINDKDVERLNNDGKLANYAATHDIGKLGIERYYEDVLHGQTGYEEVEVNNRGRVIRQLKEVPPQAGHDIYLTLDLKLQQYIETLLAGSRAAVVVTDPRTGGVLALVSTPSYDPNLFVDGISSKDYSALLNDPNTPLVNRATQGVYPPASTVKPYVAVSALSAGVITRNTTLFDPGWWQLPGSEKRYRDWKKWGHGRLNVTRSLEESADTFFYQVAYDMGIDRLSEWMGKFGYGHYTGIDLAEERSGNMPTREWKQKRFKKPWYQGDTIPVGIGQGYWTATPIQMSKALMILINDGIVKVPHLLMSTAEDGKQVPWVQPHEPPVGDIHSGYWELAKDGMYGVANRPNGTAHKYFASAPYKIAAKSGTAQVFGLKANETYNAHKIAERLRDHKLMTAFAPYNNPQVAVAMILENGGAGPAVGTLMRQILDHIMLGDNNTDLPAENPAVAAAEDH
Method in brief: as §1

[4] = test system: E. coli K12 PBP1a/b; experiment: Bocillin FL competition binding assay, PBP1a/1b combined; set-up: species or system Escherichia coli K12; details: 15 min pre-incubation, PBP 1a/1b combined
Method in brief: as §1

[5] = test system: S. aureus ATCC 29213; experiment: Broth microdilution MIC assay, S. aureus; format: cell-based; details: Staphylococcus aureus, ATCC29213; broth microdilution, 16-20 hours at 37° C.; read-out: S. aureus 29213 MIC
Method in brief: (§2)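 Growth inhibition is measured by CLSI broth microdilution. Log-phase bacteria (5×10^5 CFU/mL starting density) are incubated with 2-fold compound dilutions in cation-supplemented MH broth for 16-20 hours at 37° C, and the MIC is scored visually.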

[6] = test system: hyper-permeable E. coli 901C; experiment: Broth microdilution MIC assay, hyper-permeable E. coli; format: cell-based; details: Escherichia coli, read-out: E. coli 901C MIC
Method in brief: as §2

T1 sequence (P0AD68 1-577): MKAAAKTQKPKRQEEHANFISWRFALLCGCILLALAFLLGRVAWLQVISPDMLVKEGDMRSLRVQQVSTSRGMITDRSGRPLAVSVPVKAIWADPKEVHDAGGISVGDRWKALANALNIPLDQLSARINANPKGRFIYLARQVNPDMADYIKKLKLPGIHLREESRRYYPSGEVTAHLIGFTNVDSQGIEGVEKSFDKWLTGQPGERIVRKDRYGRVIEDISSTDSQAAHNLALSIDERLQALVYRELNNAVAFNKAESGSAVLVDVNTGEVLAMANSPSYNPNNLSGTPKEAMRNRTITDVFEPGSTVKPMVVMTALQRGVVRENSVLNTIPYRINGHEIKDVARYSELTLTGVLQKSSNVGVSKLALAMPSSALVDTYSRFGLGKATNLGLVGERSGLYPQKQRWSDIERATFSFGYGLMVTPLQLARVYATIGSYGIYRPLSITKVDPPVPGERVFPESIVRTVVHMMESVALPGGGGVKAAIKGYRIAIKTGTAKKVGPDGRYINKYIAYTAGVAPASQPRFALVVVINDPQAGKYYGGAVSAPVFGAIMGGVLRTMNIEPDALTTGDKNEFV

Row | SMILES | E. coli PBP3 Potency [1] | E. coli K12 PBP1b Potency [2] | E. coli PBP2 Potency [3] | E. coli K12 PBP1a/b Potency [4] | MIC [5] [µg/mL] | MIC [6] [µg/mL]
1 | N=C(NC1CCNCC1)c1ccc(OCCO/N=C(\C(=O)N[C@H]2Cc3cccc(C(=O)O)c3OB2O)c2csc(N)n2)cc1 [Example 47, (R,Z)-3-(2-(2-aminothiazol-4-yl)-2-((2-(4-(N-(piperidin-4-yl)carbamimidoyl)phenoxy)ethoxy)imino)acetamido)-2-hydroxy-3,4-dihydro-2H-benzo[e][1,2]oxaborinine-8-carboxylic Acid] | B (B represents a potency between 64 and 1000 μg/mL inclusive) | B (B represents a potency between 64 and 1000 μg/mL inclusive) | B (B represents a potency between 64 and 1000 μg/mL inclusive) | B (B represents a potency between 64 and 1000 μg/mL inclusive) | 64 to 128 | < 64
2 | CCO/N=C(\C(=O)N[C@H]1Cc2cccc(C(=O)O)c2OB1O)c1csc(N)n1 [Example 48, (R,Z)-3-(2-(2-aminothiazol-4-yl)-2-(ethoxyimino)acetamido)-2-hydroxy-3,4-dihydro-2H-benzo[e][1,2]oxaborinine-8-carboxylic Acid] | B (B represents a potency between 64 and 1000 μg/mL inclusive) | B (B represents a potency between 64 and 1000 μg/mL inclusive) | B (B represents a potency between 64 and 1000 μg/mL inclusive) | B (B represents a potency between 64 and 1000 μg/mL inclusive) | 64 to 128 | < 64
3 | CC(C)(O/N=C(\C(=O)N[C@H]1Cc2cccc(C(=O)O)c2OB1O)c1csc(N)n1)C(=O)NCC(=O)O [Example 75, (R,Z)-3-(2-(2-aminothiazol-4-yl)-2-(((1-((carboxymethyl)amino)-2-methyl-1-oxopropan-2-yl)oxy)imino)acetamido)-2-hydroxy-3,4-dihydro-2H-benzo[e][1,2]oxaborinine-8-carboxylic Acid] | C (C represents a potency of <64 μg/mL) | – | C (C represents a potency of <64 μg/mL) | C (C represents a potency of <64 μg/mL) | > 128 | < 64
4 | Nc1nc(/C(=N/OCC(O)CO)C(=O)N[C@H]2Cc3cccc(C(=O)O)c3OB2O)cs1 (stereo partly drawn) [Example 76, (3R)-3-((Z)-2-(2-aminothiazol-4-yl)-2-((2,3-dihydroxypropoxy)imino)acetamido)-2-hydroxy-3,4-dihydro-2H-benzo[e][1,2]oxaborinine-8-carboxylic Acid] | – | B (B represents a potency between 64 and 1000 μg/mL inclusive) | – | – | 64 to 128 | < 64
5 | CC(C)(O/N=C(\C(=O)N[C@H]1Cc2cc(O)cc(C(=O)O)c2OB1O)c1csc(N)n1)C(N)=O [Example 82, (R,Z)-3-(2-(((1-amino-2-methyl-1-oxopropan-2-yl)oxy)imino)-2-(2-aminothiazol-4-yl)acetamido)-2,6-dihydroxy-3,4-dihydro-2H-benzo[e][1,2]oxaborinine-8-carboxylic Acid] | – | B (B represents a potency between 64 and 1000 μg/mL inclusive) | – | – | > 128 | < 64
6 | Nc1nc(/C(=C/c2cccnc2)C(=O)N[C@H]2Cc3cccc(C(=O)O)c3OB2O)cs1 [Example 87, (R,Z)-3-(2-(2-aminothiazol-4-yl)-3-(pyridin-3-yl)acrylamido)-2-hydroxy-3,4-dihydro-2H-benzo[e][1,2]oxaborinine-8-carboxylic Acid] | B (B represents a potency between 64 and 1000 μg/mL inclusive) | – | B (B represents a potency between 64 and 1000 μg/mL inclusive) | A (A represents a potency of >1000 μg/mL) | 64 to 128 | < 64
7 | Nc1nc(/C(=C\C(=O)O)C(=O)N[C@H]2Cc3cccc(C(=O)O)c3OB2O)cs1 [Example 88, (R,E)-3-(2-(2-aminothiazol-4-yl)-3-carboxyacrylamido)-2-hydroxy-3,4-dihydro-2H-benzo[e][1,2]oxaborinine-8-carboxylic Acid] | B (B represents a potency between 64 and 1000 μg/mL inclusive) | – | B (B represents a potency between 64 and 1000 μg/mL inclusive) | A (A represents a potency of >1000 μg/mL) | > 128 | 64 to 128
8 | Nc1nc(/C(=C/C(=O)O)C(=O)N[C@H]2Cc3cccc(C(=O)O)c3OB2O)cs1 [Example 89, (R,Z)-3-(2-(2-aminothiazol-4-yl)-3-carboxyacrylamido)-2-hydroxy-3,4-dihydro-2H-benzo[e][1,2]oxaborinine-8-carboxylic Acid] | C (C represents a potency of <64 μg/mL) | – | C (C represents a potency of <64 μg/mL) | A (A represents a potency of >1000 μg/mL) | > 128 | 64 to 128
9 | Nc1nc(/C(=N/OCCF)C(=O)N[C@H]2Cc3cccc(C(=O)O)c3OB2O)cs1 [Example 113, (R,Z)-3-(2-(2-aminothiazol-4-yl)-2-((2-fluoroethoxy)imino)acetamido)-2-hydroxy-3,4-dihydro-2H-benzo[e][1,2]oxaborinine-8-carboxylic Acid] | – | B (B represents a potency between 64 and 1000 μg/mL inclusive) | – | – | 64 to 128 | < 64

Reference: patent US11267826B2, “Penicillin-binding protein inhibitors” (priority 2017, dated 2022)
